{
  "source": "patent US20130131002A1",
  "about": "“COMPOSITIONS AND METHODS FOR TREATING PULMONARY HYPERTENSION” (Georgetown University, priority 2010, published 2013)",
  "assay_type_in_all_cases": "in vivo, Sprague Dawley rats",
  "key": {"[1]": {"test_system": "rats with hypoxia-induced pulmonary hypertension", "test": "Pulmonary arterial wall thickening assessed histologically (H&E stained lungs) in chronic hypoxia rats", "settings": "vs saline", "source_text": "(§1) All animal studies were approved by the Georgetown University Animal Care and Use Committee. Adult Sprague Dawley rats (200-250 g) were placed in specialized cages connected to the OxyCycler Oxygen Profile Controller (BioSpherix, Redfield, N.Y.) which precisely controls the oxygen and nitrogen contents. Animals were subjected to hypoxic gas (10% O2, balance N2). […] Normoxia control animals are subjected to the same conditions except that they were exposed to ambient O2. All animals were fed normal rat chow during treatment and used in accordance with institutional guidelines.\n(§2) After 2-weeks of hypoxia or normoxia treatment, animals were injected intraperitoneally with saline or daunorubicin (20 mg/kg body weight; Sigma-Aldrich, St. Louise, Mo.). After injection, animals were placed back in hypoxia or normoxia condition for 3 days.\n(§3) As an indication of the development of pulmonary hypertension, right ventricular hypertrophy was estimated by calculating RV/(LV+S), where RV is the mass of right ventricle, LV is the mass of left ventricle and S is the mass of septum. Right ventricular pressure was measured by inserting a 1.4 F Millar Catheter into the right ventricle at the base of apex using PowerLab 8/30 High Performance Data Acquisition System with Chart Pro in anesthetized and ventilated animals. Pulmonary arterial wall thickening was assessed histologically in hematoxylin and eosin stained lungs. Apoptosis of pulmonary vascular cells was monitored using terminal deoxynucleotidyl transferase dUTP nick end labeling (TUNEL) method.\n(§4) Comparisons between the 2 groups were analyzed using a two-tailed Student's t test, and comparisons between 3 or more groups were analyzed by ANOVA with a Student-Newman-Keuls post-hoc test. p<0.05 was considered to be significant. […]\n(§5) Comparisons between the 2 groups (2 mg/kg vs. control, or 5 mg/kg vs. control) were analyzed using a two-tailed Student's t test, and comparisons between 3 or more groups were analyzed by ANOVA with a Student-Newman-Keuls post-hoc test. p<0.05 was considered to be significant."}, "[2]": {"test_system": "normal animals without pulmonary hypertension", "test": "Pulmonary vascular wall thickness (H&E stained lungs) in normoxia control rats", "source_text": "as §1, §2, §3, §4, §5"}, "[3]": {"test_system": "pulmonary artery smooth muscle cells", "test": "Apoptosis of pulmonary vascular cells by TUNEL method in lungs of treated rats", "settings": "daunorubicin 20 mg/kg i.p.", "source_text": "as §1, with “guidelines. […]” for “guidelines.”\nas §3"}, "[4]": {"test": "Overall body weight of treated animals", "settings": "lower doses of daunorubicin (2 mg/kg and 5 mg/kg i.p.)"}},
  "note": "Entries after “also recorded” stand apart in the source; their conditions may differ.",
  "data": [
    {"smiles": "COc1cccc2c1C(=O)c1c(O)c3c(c(O)c1C2=O)C[C@@](O)(C(C)=O)C[C@@H]3O[C@H]1C[C@H](N)[C@H](O)[C@H](C)O1", "note": "[daunorubicin]", "values": [
      {"measurement": "hypoxia-induced pulmonary vascular wall thickening", "setting": "[1]; daunorubicin 2 mg/kg i.p. after 2 weeks hypoxia", "value": "significantly reducing hypoxia-induced wall thickening; also recorded: significantly reduced hypoxia-induced wall thickening"},
      {"measurement": "hypoxia-induced pulmonary vascular wall thickening", "setting": "[1]; daunorubicin 5 mg/kg i.p. after 2 weeks hypoxia", "value": "significantly reducing hypoxia-induced wall thickening; also recorded: significantly reduced hypoxia-induced wall thickening"},
      {"measurement": "hypoxia-induced pulmonary vascular wall thickening", "setting": "[1]; daunorubicin 20 mg/kg i.p. after 2 weeks 10% O2 hypoxia, then 3 more days hypoxia, P<0.05", "value": "reduced thickening of pulmonary vascular walls; also recorded: significantly reduced this hypoxia-induced wall thickening"},
      {"measurement": "thickness of the vascular walls in normal animals", "setting": "[2]; daunorubicin 2 mg/kg i.p.", "value": "did not affect the thickness of the vascular walls"},
      {"measurement": "thickness of the vascular walls in normal animals", "setting": "[2]; daunorubicin 5 mg/kg i.p.", "value": "did not affect the thickness of the vascular walls"},
      {"measurement": "thickness of the vascular walls in normal animals", "setting": "[2]; daunorubicin 20 mg/kg i.p.", "value": "did not affect the thickness of the vascular walls"},
      {"measurement": "TUNEL-positive (apoptotic) cells in pulmonary vascular walls", "setting": "[3]; hypoxia-exposed rats, saline controls showed none", "value": "induction of apoptosis in pulmonary vascular walls; also recorded: presented TUNEL-positive cells"},
      {"measurement": "selectivity of apoptosis induction: thickened vs normal pulmonary vessels", "setting": "[3]; hypoxia rats (FIG. 3A) vs normoxia rats (FIG. 3B)", "value": "can selectively kill pulmonary artery smooth muscle cells involved in thickened vascular walls"},
      {"measurement": "overall body weight of the animals", "setting": "[4]", "value": "not significantly affecting the overall body weight; also recorded: do not significantly impact the overall body weight"}
    ]}
  ]
}
